Calls of active or inactive are those of the source. The rule behind the calls is not given here.
How the values were obtained:
[1] = target: T1, CREB-binding protein/Histone acetyltransferase p300 (Homo sapiens, UniProt Q09472+Q92793); experiment: Inhibition of CBP/EP300 in human MOLM16 cells assessed as suppression of MCL1 expression at 5 uM measured after 4 hrs by RT-PCR analysis relative to DMSO control; type: cell-based
[2] = target: Cytochrome P450 2D6 (Homo sapiens, UniProt P10635); experiment: Inhibition of CYP2D6 in human liver microsomes assessed as formation of dextrophan from dextromethorphan measured after 10 mins in presence of NADPH by LC-MS/MS analysis; type: ADME
[3] = Decrease in MYC mRNA expression in tumor of SCID beige mouse xenografted with human MOLM16 cells at 100 mg/kg, po administered twice daily via gavage as single dose measured after 2 hrs by RT-PCR analysis relative to control; type: functional, organism-based
[4] = Volume of distribution at steady state in nu/nu mouse at 1 mg/kg, iv or 100 mg/kg, po by LC-MS/MS analysis; type: ADME, organism-based; conditions: in vivo, read-out: Vdss
[5] = target: Cytochrome P450 2C19 (Homo sapiens, UniProt P33261); experiment: Inhibition of CYP2C19 in human liver microsomes assessed as formation of 4-hydroxymephenytoin from mephenytoin measured after 40 mins in presence of NADPH by LC-MS/MS analysis; type: ADME
[6] = target: T1, CREB-binding protein/Histone acetyltransferase p300; experiment: Inhibition of CBP/EP300 in human MOLM16 cells assessed as suppression of BCL2 expression at 5 uM measured after 4 hrs by RT-PCR analysis relative to DMSO control; type: cell-based
[7] = Antitumor activity against human MOLM16 cells xenografted in SCID beige mouse assessed as tumor growth inhibition at 12.5 mg/kg, po BID administered through gavage for 21 days; type: functional; conditions: read-out: TGI
[8] = system: KMS26; experiment: Antiproliferative activity against human KMS26 cells measured after 6 days by CellTiter-Glo assay; type: functional, cell-based
[9] = Antitumor activity against human MOLM16 cells xenografted in SCID beige mouse assessed as tumor growth inhibition at 50 mg/kg, po BID administered through gavage for 21 days; type: functional; conditions: read-out: TGI
[10] = Half life in nu/nu mouse at 1 mg/kg, iv or 100 mg/kg, po by LC-MS/MS analysis; type: ADME, organism-based; conditions: in vivo
[11] = system: Jurkat; experiment: Antiproliferative activity against human Jurkat cells measured after 6 days by CellTiter-Glo assay; type: functional, cell-based

T1 sequence (Q09472 whole entry, looked up): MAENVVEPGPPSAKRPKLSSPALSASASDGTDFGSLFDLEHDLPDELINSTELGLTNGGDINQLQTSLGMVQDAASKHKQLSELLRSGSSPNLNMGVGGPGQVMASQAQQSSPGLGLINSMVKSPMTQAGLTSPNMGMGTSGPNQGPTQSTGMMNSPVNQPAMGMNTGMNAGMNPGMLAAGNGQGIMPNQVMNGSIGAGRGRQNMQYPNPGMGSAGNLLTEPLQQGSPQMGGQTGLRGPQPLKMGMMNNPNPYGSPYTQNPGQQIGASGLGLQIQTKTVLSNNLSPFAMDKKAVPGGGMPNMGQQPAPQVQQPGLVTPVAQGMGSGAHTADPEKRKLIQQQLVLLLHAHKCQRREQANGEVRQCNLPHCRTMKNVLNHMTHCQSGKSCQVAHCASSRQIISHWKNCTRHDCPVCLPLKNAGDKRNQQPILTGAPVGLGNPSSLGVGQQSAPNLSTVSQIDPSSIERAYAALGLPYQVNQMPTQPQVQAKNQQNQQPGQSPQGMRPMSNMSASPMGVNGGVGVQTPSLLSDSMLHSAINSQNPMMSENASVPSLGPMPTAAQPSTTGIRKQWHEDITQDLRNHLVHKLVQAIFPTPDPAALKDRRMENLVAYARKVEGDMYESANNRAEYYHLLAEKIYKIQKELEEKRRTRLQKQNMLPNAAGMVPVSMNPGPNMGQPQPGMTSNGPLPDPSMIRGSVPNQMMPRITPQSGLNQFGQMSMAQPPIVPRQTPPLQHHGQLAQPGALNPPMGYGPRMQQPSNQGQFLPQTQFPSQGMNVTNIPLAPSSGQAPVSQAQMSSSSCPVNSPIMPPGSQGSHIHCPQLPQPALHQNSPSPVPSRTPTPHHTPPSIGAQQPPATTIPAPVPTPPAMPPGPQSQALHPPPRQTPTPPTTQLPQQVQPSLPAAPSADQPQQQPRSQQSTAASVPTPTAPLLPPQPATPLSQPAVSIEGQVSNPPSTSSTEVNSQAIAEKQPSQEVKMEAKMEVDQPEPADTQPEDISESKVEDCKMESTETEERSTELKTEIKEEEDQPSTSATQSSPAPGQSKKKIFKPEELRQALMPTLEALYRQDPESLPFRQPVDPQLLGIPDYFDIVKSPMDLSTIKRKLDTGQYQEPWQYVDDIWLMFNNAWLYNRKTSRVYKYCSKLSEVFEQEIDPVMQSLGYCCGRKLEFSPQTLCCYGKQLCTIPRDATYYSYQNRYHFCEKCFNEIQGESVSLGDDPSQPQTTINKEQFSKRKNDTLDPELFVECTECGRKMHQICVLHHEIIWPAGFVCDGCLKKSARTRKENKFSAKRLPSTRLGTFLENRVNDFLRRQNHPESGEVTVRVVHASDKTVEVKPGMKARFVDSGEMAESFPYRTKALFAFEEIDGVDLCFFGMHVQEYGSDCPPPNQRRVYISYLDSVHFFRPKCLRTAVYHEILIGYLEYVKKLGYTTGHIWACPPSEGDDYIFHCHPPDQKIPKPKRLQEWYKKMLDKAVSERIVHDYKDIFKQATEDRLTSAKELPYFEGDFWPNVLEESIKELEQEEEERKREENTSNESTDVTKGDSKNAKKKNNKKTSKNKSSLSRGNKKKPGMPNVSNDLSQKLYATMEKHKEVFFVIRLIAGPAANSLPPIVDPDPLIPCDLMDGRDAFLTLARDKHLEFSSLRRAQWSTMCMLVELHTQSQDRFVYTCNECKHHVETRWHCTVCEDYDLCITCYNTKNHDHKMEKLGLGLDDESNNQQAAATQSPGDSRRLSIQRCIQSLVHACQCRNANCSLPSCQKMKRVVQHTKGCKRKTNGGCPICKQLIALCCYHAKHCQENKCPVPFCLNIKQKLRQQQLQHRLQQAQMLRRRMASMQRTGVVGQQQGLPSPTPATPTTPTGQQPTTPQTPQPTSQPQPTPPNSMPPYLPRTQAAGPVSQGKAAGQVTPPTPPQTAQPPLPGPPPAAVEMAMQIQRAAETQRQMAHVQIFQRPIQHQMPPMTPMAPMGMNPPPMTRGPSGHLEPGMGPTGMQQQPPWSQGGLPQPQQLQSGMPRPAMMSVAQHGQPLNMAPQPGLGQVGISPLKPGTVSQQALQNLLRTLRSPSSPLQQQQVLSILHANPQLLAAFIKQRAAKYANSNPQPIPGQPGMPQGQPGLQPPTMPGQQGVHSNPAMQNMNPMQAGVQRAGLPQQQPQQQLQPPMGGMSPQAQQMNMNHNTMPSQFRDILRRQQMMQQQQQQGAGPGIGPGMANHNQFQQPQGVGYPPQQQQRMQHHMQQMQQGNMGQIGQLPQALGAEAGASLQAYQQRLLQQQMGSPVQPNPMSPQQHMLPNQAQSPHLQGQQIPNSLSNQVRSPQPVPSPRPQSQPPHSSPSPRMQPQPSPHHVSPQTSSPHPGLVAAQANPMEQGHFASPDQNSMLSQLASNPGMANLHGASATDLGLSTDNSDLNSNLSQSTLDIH
T1 sequence (Q92793 whole entry, looked up): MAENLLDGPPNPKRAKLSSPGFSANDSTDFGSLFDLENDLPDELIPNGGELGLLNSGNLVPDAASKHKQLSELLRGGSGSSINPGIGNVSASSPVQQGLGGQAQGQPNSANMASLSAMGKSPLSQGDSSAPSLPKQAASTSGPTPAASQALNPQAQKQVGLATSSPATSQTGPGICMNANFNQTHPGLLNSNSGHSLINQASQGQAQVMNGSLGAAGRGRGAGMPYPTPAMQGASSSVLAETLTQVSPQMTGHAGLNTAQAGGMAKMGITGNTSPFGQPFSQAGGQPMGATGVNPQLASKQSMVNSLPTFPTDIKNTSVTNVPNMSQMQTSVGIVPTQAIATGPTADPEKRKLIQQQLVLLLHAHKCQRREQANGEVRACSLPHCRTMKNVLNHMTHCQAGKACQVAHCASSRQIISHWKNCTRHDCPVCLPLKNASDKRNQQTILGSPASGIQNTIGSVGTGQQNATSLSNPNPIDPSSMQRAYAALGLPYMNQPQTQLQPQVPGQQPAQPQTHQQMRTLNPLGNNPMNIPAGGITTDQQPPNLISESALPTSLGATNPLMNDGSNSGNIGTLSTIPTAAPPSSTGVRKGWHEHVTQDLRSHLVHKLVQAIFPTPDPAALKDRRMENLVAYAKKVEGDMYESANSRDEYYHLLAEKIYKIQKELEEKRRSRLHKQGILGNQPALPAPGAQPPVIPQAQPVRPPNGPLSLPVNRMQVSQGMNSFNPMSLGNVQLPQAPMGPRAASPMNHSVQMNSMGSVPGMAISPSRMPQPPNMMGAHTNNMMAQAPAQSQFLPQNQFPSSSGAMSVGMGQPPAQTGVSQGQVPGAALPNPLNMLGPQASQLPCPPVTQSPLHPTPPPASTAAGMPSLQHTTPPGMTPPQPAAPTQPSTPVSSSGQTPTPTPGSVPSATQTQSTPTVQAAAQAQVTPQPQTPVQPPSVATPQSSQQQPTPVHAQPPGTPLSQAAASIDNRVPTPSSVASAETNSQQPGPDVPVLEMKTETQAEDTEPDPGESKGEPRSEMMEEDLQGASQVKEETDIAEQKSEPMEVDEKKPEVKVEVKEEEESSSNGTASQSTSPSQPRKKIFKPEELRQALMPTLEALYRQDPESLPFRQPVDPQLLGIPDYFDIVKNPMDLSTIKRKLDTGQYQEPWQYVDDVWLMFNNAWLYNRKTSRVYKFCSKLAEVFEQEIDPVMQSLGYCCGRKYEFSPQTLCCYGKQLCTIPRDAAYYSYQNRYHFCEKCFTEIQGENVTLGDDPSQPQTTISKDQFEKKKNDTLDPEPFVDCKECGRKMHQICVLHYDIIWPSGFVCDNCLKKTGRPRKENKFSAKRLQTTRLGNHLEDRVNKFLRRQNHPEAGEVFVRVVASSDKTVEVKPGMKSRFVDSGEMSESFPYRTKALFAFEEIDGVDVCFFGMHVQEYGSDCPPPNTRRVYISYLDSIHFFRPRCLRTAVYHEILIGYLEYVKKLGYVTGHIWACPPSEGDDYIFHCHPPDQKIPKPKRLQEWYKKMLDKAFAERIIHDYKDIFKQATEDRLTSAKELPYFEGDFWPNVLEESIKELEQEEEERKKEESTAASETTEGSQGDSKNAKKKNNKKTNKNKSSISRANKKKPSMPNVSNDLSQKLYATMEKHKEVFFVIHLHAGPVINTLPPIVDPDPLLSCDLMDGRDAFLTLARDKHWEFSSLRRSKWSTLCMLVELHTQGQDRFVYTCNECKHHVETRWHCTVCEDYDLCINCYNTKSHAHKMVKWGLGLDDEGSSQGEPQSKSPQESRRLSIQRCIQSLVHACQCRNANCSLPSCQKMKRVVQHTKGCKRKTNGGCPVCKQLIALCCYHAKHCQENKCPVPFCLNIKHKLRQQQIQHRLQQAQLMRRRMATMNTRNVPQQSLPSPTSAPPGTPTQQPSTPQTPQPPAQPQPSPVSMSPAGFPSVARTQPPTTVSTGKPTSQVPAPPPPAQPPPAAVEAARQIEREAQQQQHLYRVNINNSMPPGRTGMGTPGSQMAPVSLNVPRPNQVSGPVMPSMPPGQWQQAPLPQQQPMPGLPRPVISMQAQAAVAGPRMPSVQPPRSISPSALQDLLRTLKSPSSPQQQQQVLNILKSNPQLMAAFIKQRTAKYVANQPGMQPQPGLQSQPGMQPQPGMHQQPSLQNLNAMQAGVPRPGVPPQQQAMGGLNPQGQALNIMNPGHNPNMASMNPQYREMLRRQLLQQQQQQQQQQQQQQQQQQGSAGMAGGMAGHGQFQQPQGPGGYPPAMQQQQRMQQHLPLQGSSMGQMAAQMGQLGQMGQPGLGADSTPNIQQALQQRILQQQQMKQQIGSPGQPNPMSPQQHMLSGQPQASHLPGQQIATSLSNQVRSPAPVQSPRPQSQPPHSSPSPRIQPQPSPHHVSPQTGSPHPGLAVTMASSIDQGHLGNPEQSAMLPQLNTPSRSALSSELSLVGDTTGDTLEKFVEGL

Q: Which inhibition [1] does the source give for `CC(=O)N1CCc2c(c(Nc3ccc(-c4cnn(C)c4)cc3F)nn2[C@@H]2CCOC2)C1` here?
A: Its inhibition is “Active”.

Q: And the INH [2]?
A: The INH was greater than 10 µM.

Q: And the inhibition [3]?
A: The inhibition was 86%.

Q: What about the Vd [4] of the same molecule?
A: The Vd was 1.5 L/kg.

Q: What about the INH [5] of the same molecule?
A: The INH was greater than 10 µM.

Q: And the inhibition [6]?
A: Its inhibition is “Active”.

Q: And the inhibition in vivo at 12.5 mg/kg [7]?
A: Its inhibition in vivo at 12.5 mg/kg is 46%.

Q: What about the Activity [8] of the same molecule?
A: The Activity was “Active”.

Q: What about the inhibition in vivo at 50 mg/kg [9] of the same molecule?
A: Its inhibition in vivo at 50 mg/kg is 102%.

Q: What about the half-life [10] of the same molecule?
A: The half-life was 2 h.

Q: What about the Activity [11] of the same molecule?
A: Its Activity is “Active”.

— ChEMBL document CHEMBL3864133, “Discovery of a Potent and Selective in Vivo Probe (GNE-272) for the Bromodomains of CBP/EP300” (J Med Chem, 2016)
